Results taken from patent publication US4113714A, “[Des-Ala^1, Gly^2 -desamino-Cys^3 ]somatostatin” (American Home Products Corporation, priority 1975, dated 1978).

Tested on: cultured rat pituitary cells
Test: in vitro inhibition of growth hormone secretion by cultured rat pituitary cells (radioimmunoassay)
Assay type: cell-based
Conditions: three hours at 37° C in Eagles medium, control 441±12
Protocol: The activity of the undecapeptide of this invention was established in both in vitro and in vivo testing procedures, employing modifications of the techniques disclosed by Penso et al., Tissue Culture in Biological Research, Elsevier, 1963, p. 98; Berson et al., Metabolism, 13, 1135(1964).
The in vitro tests were conducted by covering cultured rat pituitary cells contained in petri dishes with five milliliter portions of the undecapeptide, as its diacetate salt, in Eagles medium for three hours at 37° C. Three Petri dishes were employed for each solution concentration. The amount of growth hormone produced by the cultured pituitary cells is then compared with growth hormone produced by non-treated cells prepared in identical manner, via growth hormone radioimmunoassay. The difference between the growth hormone produced by treated and non-treated pituitary cells establishes the amount of inhibition by the compound under study.
The cultured pituitary cells are prepared by excising and mincing rat pituitary glands followed by enzymatic separation of the cells (collagenase and hyaluronidase) and culture on synthetic nutrient media. When the cells attach themselves to the bottom of the plastic petri dish and cover the nutrient surface, they are washed with Eagles medium containing only inorganic salts, glucose and antibiotics in which state they are ready for use as above described.
The activity of the undecapeptide of this invention was compared in vitro with somatostatin with the following results in which the concentration valves given are in nanograms/milliliter: […]

C[C@H](N)C(=O)NCC(=O)N[C@H]1CSSC[C@@H](C(=O)O)NC(=O)[C@H](CO)NC(=O)[C@H]([C@@H](C)O)NC(=O)[C@H](Cc2ccccc2)NC(=O)[C@H]([C@@H](C)O)NC(=O)[C@H](CCCCN)NC(=O)[C@H](Cc2c[nH]c3ccccc23)NC(=O)[C@H](Cc2ccccc2)NC(=O)[C@H](Cc2ccccc2)NC(=O)[C@H](CC(N)=O)NC(=O)[C@H](CCCCN)NC1=O [somatostatin]
Growth Hormone Secreted (compound concentration 10 ng/ml): 260 ± 8 ng/mL | Growth Hormone Secreted (compound concentration 50 ng/ml): 271 ± 22 ng/mL | Growth Hormone Secreted (compound concentration 100 ng/ml): 250 ± 13 ng/mL
